Source: publication PMC11242853, “The Antimicrobial Activity of Human Defensins at Physiological Non-Permeabilizing Concentrations Is Caused by the Inhibition of the Plasma Membrane H^+-ATPases” (International Journal of Molecular Sciences, 2024)
Where no end group is shown, it is not given here.

Tests used:
[1] = tested on: Pseudomonas aeruginosa PAO1; assay: Antimicrobial spread-plate (CFU) killing assay, P. aeruginosa; assay type: cell-based; conditions: for non-permeabilizing inhibitory concentration (NPIC), P. aeruginosa: antimicrobial concentration (≤10% viable cells) that permeabilized ≤10% of cells, 10^6 cells/mL, Tris buffer pH 7.4, 90 min at 37 °C, from Figure 1 data, duplicates of three experiments
Description: (§1) To determine whether the above microbicidal concentrations exert a permeabilizing effect on fungal and bacterial membranes, the influx of the fluorescent nucleic acid-binding dye propidium iodide (PI) in cells incubated with the peptides was assessed. In cells, dye uptake reflects membrane permeabilization, as PI itself cannot permeate through an intact phospholipid bilayer. […] To select an antimicrobial but non-permeabilizing concentration of each peptide for further assays, we defined as a non-permeabilizing inhibitory concentration (NPIC) the antimicrobial inhibitory concentration (≤10% viable cells) that permeabilized ≤ 10% of cells incubated (90 min at 37 °C) in buffer solution.
(§2) Microbial susceptibility to the peptides was determined in a spread-plate assay as described previously. Briefly, cell suspensions (10^6 cells/mL) in Tris buffer (10 mM Tris-HCl, pH 7.4) were incubated for 90 min at 37 °C with 2-fold serial peptide dilutions. Peptide concentrations ranged from 0 to 2 μM. After incubation, the number of viable cells was determined by plating aliquots (100 μL) in duplicate on plates (SDA for C. albicans, TSA for P. aeruginosa, and M17G agarified medium for L. lactis) that had been dried for 30 min at room temperature in a laminar flow hood. Plates were incubated for 24–48 h at 30 °C (C. albicans and L. lactis) or 24 h at 37 °C (P. aeruginosa). Dilutions yielding 50–200 colonies were counted. Cell viability values, expressed as colony-forming units (CFUs), were calculated relative to the incubation without added peptides and represent the means ± standard deviation (SD) from duplicates of three independent experiments. For inhibition assays, unless otherwise noted, cell suspensions were preincubated (15 min at 37 °C) with the appropriate inhibitor prior to the addition of peptides, but the inhibitor was present throughout the incubation period with the peptide (90 min at 37 °C). Other specific experimental conditions are described as appropriate. In some experiments, the concentrations of human lactoferrin against C. albicans (5 μM), P. aeruginosa (1 μM), and L. lactis (0.065 μM) were used in the control assays. In various viability assays, BM2 peptide (0.25 μM), CCCP (50 μM), colistin (4 μg/mL), nystatin (50 μM), oligomycin A (16 μg/mL), piericidin A (32 μM), and TEA (10 mM) were used.

[2] = tested on: Lactococcus lactis subsp. lactis (strain IL1403); assay: Antimicrobial spread-plate (CFU) killing assay, fermenting L. lactis; assay type: cell-based; conditions: fermentative conditions; range tested 0.062 to 2 µM; Tris buffer, 90 min at 37 °C
Description: as §2, with “In some experiments, the concentrations of human lactoferrin against C. albicans (5 μM), P. aeruginosa (1 μM), and L. lactis (0.065 μM) were used in the control assays. In various viability assays, BM2 peptide (0.25 μM), CCCP (50 μM), colistin (4 μg/mL), nystatin (50 μM), oligomycin A (16 μg/mL), piericidin A (32 μM), and TEA (10 mM) were used.” left out

[3] = tested on: P. aeruginosa cells; assay: Permeability assay (propidium iodide uptake, flow cytometry), P. aeruginosa; assay type: cell-based, Pseudomonas aeruginosa; conditions: 90 min at 37 °C, Tris buffer, PI 1 µg/mL
Description: as §1

[4] = tested on: C. albicans cells; assay: Extracellular potassium measurement (K+-efflux, ICP-MS); assay type: cell-based, Candida albicans; conditions: Table 2; no reference given
Description: Potassium measurements were performed via inductively coupled plasma mass spectrometry using an Agilent 7700x ICP-MS (Agilent Technologies, Santa Clara, CA, USA). C. albicans cells were cultured in SDB for 16–20 h at 30 °C. The cells were then subcultured in the same media to the mid-logarithmic growth phase and rapidly washed in sterile, deionized, double-distilled water. The cells (10^7 cells/mL) were immediately incubated with the peptides (NPIC) for 90 min at 37 °C. The tubes were centrifuged at 1100× g for 10 min and the supernatants were collected and stored at 4 °C until analysis. The percentage of cytosolic potassium released from cell suspensions treated with nystatin (50 μM) was determined in positive control assays. Total cellular K^+-content (100% value) was measured in the supernatant of cell suspensions previously treated with 0.5% (v/v) HClO4 alone, heated for 1 h at 95 °C, and centrifuged to remove cell debris. Results are expressed as the percentage (means ± SD) of K^+-release relative to the total cellular K^+-content from duplicates of at least three independent assays.

[5] = tested on: C. albicans cells; assay: Total cellular ATP (BacTiter-Glo); assay type: cell-based, Candida albicans; conditions: for increase in ATP levels compared to the untreated control: defensins at NPIC, human lactoferrin 5 μM, BM2 peptide 0.25 μM, 10^6 cells/mL, BacTiter-Glo luminescence; for ATP increment: Table 2, no reference given
Description: Total ATP was measured using the BacTiter-Glo^TM Microbial Cell Viability Assay (Promega Co., Madison, WI, USA) according to the manufacturer’s instructions. […] Aliquots (100 µL) were incubated (90 min at 37 °C) with human defensins (NPICs). Human lactoferrin (5 μM) or BM2 peptide (0.25 μM) was used as positive controls. One hundred microliters of the incubation mixture was transferred to an opaque 96-well plate, mixed with an equal volume of BacTiter-Glo^TM reagent, and incubated for 15 min in the dark. The reagent uses a thermostable luciferase to generate luminescence in an ATP-dependent manner. The emitted luminescence was detected using a Varioskan Flash multimode reader (Thermo Scientific, Waltham, MA, USA) with a 10 s shaking and 1 s integration time. A calibration curve was generated for each experiment with ATP standards ranging from 1 to 1000 nM. All assays were performed at least three times in duplicate.

Substance | non-permeabilizing inhibitory concentration (NPIC), P. aeruginosa [1] [µM] | effect of piericidin A on bactericidal activity, P. aeruginosa ([1]; cells pretreated with 32 µM piericidin A, defensins at NPIC) | effect of CCCP on bactericidal activity, P. aeruginosa ([1]; preincubated 15 min at 37 °C with 50 µM CCCP at pH 7.4, peptides at NPIC) | calculated NPIC against fermenting L. lactis [2] [µM] | concentration showing permeabilizing activity (increase in intracellular PI), P. aeruginosa [3] [µM] | Partial K^+-efflux [4] | increase in ATP levels compared to the untreated control [5] | ATP increment [5] | pseudomonacidal activity (comparison among defensins) ([1]; 0–2 μM, 90 min at 37 °C, Tris buffer)
HNP-1: human α-defensin, UniProtKB P59665, 30 amino acids, three disulfide bonds; purchased from PeptaNova | 0.5 | significantly (p < 0.001) protected | significant reduction | 0.125 | ≥ 0.5 | Yes | ~ 7 fold |  | 
HNP-4: human α-defensin, UniProtKB P12838, 33 amino acids; purchased from PeptaNova (VCSCRLVFCRRTELRVGNCLIGGVSFTYCCTRV; ends and bridges not checked; cysteine pairing not given here; UniProt P12838 64-96, looked up) | 0.25 |  |  |  |  | Yes | ~ 8 fold | Yes | 
hBD-3: human β-defensin, UniProtKB Q5U7J2, 45 amino acids; purchased from PeptaNova (GIINTLQKYYCRVRGGRCAVLSCLPKEEQIGKCSTRGRKCCRRKK; Beta-defensin 103; UniProt P81534 23-67, looked up) | 0.25 |  |  |  |  | Yes | ~ 6 fold | Yes | most potent pseudomonacidal activity
